The values that follow are results of earlier work, collected in patent US6825217B2, “Carbinols for the treatment of neuropathic dysfunction” (Endo Pharmaceuticals, Inc., priority 2001, dated 2004).

Structures are written as SMILES.

For this data set the following is noted: rat, in vivo; cited from earlier work.

As to `CSCC[C@@H]1NC(=O)[C@H](CC(C)C)NC(=O)[C@H](CCCNC(=N)N)NC(=O)[C@H](CO)NC(=O)[C@@H]2CSSC[C@@H]3NC(=O)[C@H](CO)NC(=O)CNC(=O)[C@H]([C@@H](C)O)NC(=O)[C@H](CSSC[C@H](N)C(=O)N[C@@H](CCCCN)C(=O)NCC(=O)N[C@@H](CCCCN)C(=O)NCC(=O)N[C@@H](C)C(=O)N[C@@H](CCCCN)C(=O)N2)NC(=O)[C@H](CSSC[C@@H](C(N)=O)NC(=O)[C@H](CCCCN)NC(=O)CNC(=O)[C@H](CO)NC(=O)[C@H](CCCNC(=N)N)NC3=O)NC(=O)[C@H](CC(=O)O)NC(=O)[C@H](Cc2ccc(O)cc2)NC1=O` [SNX-111], the “duration of reduction of heat hyperalgesia and mechanical allodynia” value is listed as “at least three hours”; the heat hyperalgesia entry was “reduced”; the mechanical allodynia entry was “reduced”; the mechanical hyperalgesia result is listed as “no effect”. Moreover, the “responses to sensory stimuli, thermal or mechanical” value is listed as “no effect”.
